By logP is commonly meant a log measure of how a compound divides between an organic and an aqueous phase. High values mean higher lipophilicity, low ones lower lipophilicity.

For 53 compounds, disease control and logP results are on record in patent US8772266B2, “Fungicide pyrazole carboxamides derivates” (Bayer Cropscience AG, priority 2009, dated 2014).

One series relates to Fusarium nivale. The series is described as follows: In vivo curative test on Fusarium nivale (wheat). As to conditions: 500 ppm of active ingredient, evaluated 8 days after inoculation.
Series [1] is described as follows: logP by HPLC on reversed-phase column (EEC Directive 79/831 Annex V.A8). As to conditions: 40° C., 0.1% aqueous formic acid and acetonitrile, linear gradient 10% to 90% acetonitrile.
The subject of a further series is Sphaerotheca fuliginea. As to the kind of experiment: In vivo preventive test on Sphaerotheca fuliginea (cucumber), Example G. The settings on record: 10 ppm of active ingredient, evaluated 7 days after inoculation. From the text: After the spray coating has dried on, the plants are inoculated with an aqueous spore suspension of Sphaerotheca fuliginea.
The mark [2] stands for this setting: HPLC, reversed-phase column (C 18).
The mark [3] stands for this setting: HPLC on reversed-phase column (C 18).

On to `CCc1ccccc1CN(C(=O)c1c(C(F)F)nn(C)c1F)C1CC1` [Example 48], for which the disease control in the series with Fusarium nivale came out at 100%. The logP in series [1] (setting [2]) was determined as 3.33.
For `Cn1nc(C(F)F)c(C(=O)N(Cc2ccccc2C2CC2)C2CC2)c1F` [Example 47], the disease control in the series on Sphaerotheca fuliginea was found to be 100%. This compound yielded a logP in series [1] (setting [2]) of 3.44.
The compound `Cn1nc(C(F)F)c(C(=O)N(Cc2cc(F)c(Br)cc2Br)C2CC2)c1F` [Example 16] showed a disease control in the series on Fusarium nivale of 100%. In series [1] (setting [2]), this compound showed a logP of 3.96.
Consider `Cn1nc(C(F)F)c(C(=O)N(Cc2c(F)cccc2[Si](C)(C)C)C2CC2)c1F` [Example 11], for which the disease control in the series on Sphaerotheca fuliginea is recorded as 100%. The logP in series [1] (setting [2]) is recorded as 4.31.
Consider `Cn1nc(C(F)F)c(C(=O)N(Cc2cc(Cl)c(Cl)cc2C(F)(F)F)C2CC2)c1F` [Example 25], for which, in the series on Fusarium nivale, the disease control is on record as 100%. The compound also yielded a logP in series [1] (setting [2]) of 4.34.
As for `Cn1nc(C(F)F)c(C(=O)N(Cc2cc(Cl)cc(Cl)c2Cl)C2CC2)c1F` [Example 18], the disease control in the series on Sphaerotheca fuliginea and in the series with Fusarium nivale was 100% throughout. The compound further returned a logP in series [1] (setting [2]) of 4.11.
The compound `Cn1nc(C(F)F)c(C(=S)N(Cc2ccccc2)C2CC2)c1F` [Example 39] returned a disease control in the series on Fusarium nivale of 100%. Further, in series [1] (setting [2]), the logP was found to be 3.44.
In the series on Sphaerotheca fuliginea, `Cn1nc(C(F)F)c(C(=O)N(Cc2c(Cl)cccc2Br)C2CC2)c1F` [Example 83] registered a disease control of 100%. In series [1] (setting [2]), this compound yielded a logP of 3.42.
`Cn1nc(C(F)F)c(C(=S)N(Cc2c(Cl)cccc2C(F)(F)F)C2CC2)c1F` [Example 132] showed a disease control in the series on Sphaerotheca fuliginea of 100%. This compound also showed a logP in series [1] (setting [3]) of 4.23.
Compound `Cn1nc(C(F)F)c(C(=O)N(Cc2ccc(Cl)cc2Cl)C2CC2)c1F` [Example 63] gave a disease control in the series with Fusarium nivale of 100%. Moreover, the log partition coefficient (logP) in series [1] (setting [2]) is on record as 3.69.
Compound `Cn1nc(C(F)F)c(C(=O)N(Cc2ccccc2C2CCCC2)C2CC2)c1F` [Example 82] displayed a disease control with Sphaerotheca fuliginea of 100%. The logP in series [1] (setting [2]) turned out to be 4.2.
The compound `Cn1nc(C(F)F)c(C(=O)N(Cc2ccccc2OC(F)(F)F)C2CC2)c1F` [Example 105] registered a disease control in the series with Fusarium nivale of 100%. Besides, in series [1] (setting [3]), the logP was determined as 3.46.
`Cn1nc(C(F)F)c(C(=O)N(Cc2c(F)cccc2C(F)(F)F)C2CC2)c1F` [Example 84]: the disease control with Sphaerotheca fuliginea and with Fusarium nivale was 100% in each case.
`CC(C)c1ccccc1C(C)N(C(=O)c1c(C(F)F)nn(C)c1F)C1CC1` (centres unmarked) [Example 80]: the disease control in the series with Sphaerotheca fuliginea and with Fusarium nivale was 100% in each case. The logP in series [1] (setting [2]) worked out at 3.99.
Take `CC(C)c1ccccc1CN(C(=S)c1c(C(F)F)nn(C)c1F)C1CC1` [Example 131]: in the series with Sphaerotheca fuliginea, the disease control is reported as 100%. The compound further displayed a logP in series [1] (setting [3]) of 4.36.
`CC(C)Cc1cccc(Cl)c1CN(C(=O)c1c(C(F)F)nn(C)c1F)C1CC1` [Example 32] yielded a disease control in the series on Sphaerotheca fuliginea of 100%. For the same compound, the logP in series [1] (setting [2]) was found to be 4.44.
Turning to `Cn1nc(C(F)F)c(C(=O)N(Cc2c(C(F)(F)F)ccc(Cl)c2Cl)C2CC2)c1F` [Example 15], the disease control in the series on Sphaerotheca fuliginea and in the series with Fusarium nivale was 100% in each case. In addition, the logP in series [1] (setting [2]) is 3.89.
`Cn1nc(C(F)F)c(C(=O)N(Cc2c(Cl)cccc2C(F)(F)F)C2CC2)c1F` [Example 2]: the disease control in the series on Sphaerotheca fuliginea and in the series on Fusarium nivale was 100% throughout. The same compound had a logP in series [1] (setting [2]) of 3.46.
Compound `CC(C)Oc1ccc2c(c1)CCCC2N(C(=O)c1c(C(F)F)nn(C)c1F)C1CC1` (centres unmarked) [Example 42] had a disease control with Fusarium nivale of 100%. The same compound displayed a logP in series [1] (setting [2]) of 4.11.
Consider `Cn1nc(C(F)F)c(C(=O)N(Cc2c(F)cccc2I)C2CC2)c1F` [Example 8], for which the disease control in the series on Sphaerotheca fuliginea and with Fusarium nivale was 100% throughout. This compound also had a logP in series [1] (setting [2]) of 3.26.
In turn, `Cn1nc(C(F)F)c(C(=O)N(Cc2cc(Cl)ccc2Br)C2CC2)c1F` [Example 4] displayed a disease control in the series on Fusarium nivale of 100%. The compound also gave a logP in series [1] (setting [2]) of 3.67.
Turning to `CC[Si](CC)(CC)c1ccccc1CN(C(=O)c1c(C(F)F)nn(C)c1F)C1CC1` [Example 14], the disease control in the series on Sphaerotheca fuliginea and in the series with Fusarium nivale was 100% each time. Moreover, the lipophilicity (logP) in series [1] (setting [2]) was found to be 5.53.
Take `CC(c1cccc2c1OC(F)(F)O2)N(C(=O)c1c(C(F)F)nn(C)c1F)C1CC1` (racemic) [Example 72]: the disease control in the series on Sphaerotheca fuliginea is 100%. For the same compound, the logP in series [1] (setting [2]) was found to be 3.58.
For `CC(c1ccc(Cl)cc1Cl)N(C(=O)c1c(C(F)F)nn(C)c1F)C1CC1` (centres unmarked) [Example 70] the same measures were 100% and 3.83.
Turning to `Cn1nc(C(F)F)c(C(=O)N(Cc2cc(I)ccc2C(F)(F)F)C2CC2)c1F` [Example 43], the disease control in the series on Fusarium nivale turned out to be 100%. The logP in series [1] (setting [2]) worked out at 4.01.
As to `CC(c1ncc(Cl)cc1Cl)N(C(=O)c1c(C(F)F)nn(C)c1F)C1CC1` (centres unmarked) [Example 62], the disease control in the series with Sphaerotheca fuliginea is given as 100%. This compound returned a logP in series [1] (setting [2]) of 3.48.
In the case of `Cn1nc(C(F)F)c(C(=O)N(Cc2cc(Cl)ccc2C(F)(F)F)C2CC2)c1Cl` [Example 36], the disease control with Fusarium nivale was 100%. The logP in series [1] (setting [2]) is recorded as 4.01.
For `CCCCCc1ccccc1CN(C(=O)c1c(C(F)F)nn(C)c1F)C1CC1` [Example 28] the same measures were 100% and 4.62.
`CCCCCc1ccccc1C(C)N(C(=O)c1c(C(F)F)nn(C)c1F)C1CC1` (racemic) [Example 26] registered a disease control in the series with Sphaerotheca fuliginea of 100%. The same compound yielded a logP in series [1] (setting [2]) of 4.92.
In the same order, the values of `Cn1nc(C(F)F)c(C(=O)N(Cc2c([Si](C)(C)C)ccc(F)c2F)C2CC2)c1F` [Example 49] are 100% and 4.36.
Regarding `CC(c1ncc(C(F)(F)F)cc1Cl)N(C(=O)c1c(C(F)F)nn(C)c1F)C1CC1` (centres unmarked) [Example 90], the disease control with Fusarium nivale amounted to 100%. The compound further returned a logP in series [1] (setting [2]) of 3.71.
Take `CCCCCc1cccc(Cl)c1CN(C(=O)c1c(C(F)F)nn(C)c1F)C1CC1` [Example 27]: in the series with Sphaerotheca fuliginea, the disease control stood at 100%. In addition, the logP in series [1] (setting [2]) was determined as 5.
In turn, `CC(c1cc(Cl)ccc1C(F)(F)F)N(C(=O)c1c(C(F)F)nn(C)c1F)C1CC1` (centres unmarked) [Example 101] registered a disease control in the series with Sphaerotheca fuliginea of 100%. Further, the logP in series [1] (setting [3]) came to 3.92.
In the case of `Cn1nc(C(F)F)c(C(=O)N(Cc2ccccc2C(F)(F)F)C2CC2)c1F` [Example 61], the disease control in the series with Fusarium nivale amounted to 100%. In series [1] (setting [2]), the logP stood at 3.39.
For `CC(C)Cc1ccccc1CN(C(=O)c1c(C(F)F)nn(C)c1F)C1CC1` [Example 33] the same measures were 100% and 4.15.
In the series with Sphaerotheca fuliginea, `CC[Si](C)(C)c1ccccc1CN(C(=O)c1c(C(F)F)nn(C)c1F)C1CC1` [Example 13] returned a disease control of 100%. For the same compound, in series [1] (setting [2]), the logP worked out at 4.75.
In the series on Fusarium nivale, `Cn1nc(C(F)F)c(C(=O)N(Cc2ccc(Cl)cc2I)C2CC2)c1F` [Example 20] had a disease control of 100%. In addition, the logP in series [1] (setting [2]) is 3.99.
`CC1CCc2cccc(C(C)N(C(=O)c3c(C(F)F)nn(C)c3F)C3CC3)c2C1` (mixture of isomers) [Example 50] yielded a disease control with Sphaerotheca fuliginea of 100%. The compound further displayed a logP in series [1] (setting [2]) of 4.59.
Consider `CC(C)c1ccccc1CN(C(=O)c1c(C(F)F)nn(C)c1F)C1CC1C` (centres unmarked) [Example 157], for which the disease control with Sphaerotheca fuliginea was determined as 100%.
Turning to `CC(C)Cc1cccc(F)c1CN(C(=O)c1c(C(F)F)nn(C)c1F)C1CC1` [Example 127], the disease control in the series with Sphaerotheca fuliginea amounted to 100%.
On the same count and under the same terms, then `Cn1nc(C(F)F)c(C(=O)N(Cc2cc(F)ccc2C2CCCC2)C2CC2)c1F` [Example 138], with 100%.
The compound `CCc1cc(C)c(C)cc1CN(C(=O)c1c(C(F)F)nn(C)c1F)C1CC1` [Example 53] displayed a disease control in the series on Fusarium nivale of 100%. The compound also came in with a logP in series [1] (setting [2]) of 4.04.
Regarding `Cn1nc(C(F)F)c(C(=O)N(Cc2cccc(-c3ccccc3)c2)C2CC2)c1F` [Example 64], in the series with Fusarium nivale, the disease control amounted to 100%. In addition, in series [1] (setting [2]), the logP amounted to 3.78.
Take `CCCCc1cccc(F)c1CN(C(=O)c1c(C(F)F)nn(C)c1F)C1CC1` [Example 128]: the disease control in the series with Sphaerotheca fuliginea amounted to 100%.
Regarding `CCCCc1cccc(Cl)c1CN(C(=O)c1c(C(F)F)nn(C)c1F)C1CC1` [Example 115], in the series on Sphaerotheca fuliginea, the disease control was 100%.
`Cn1nc(C(F)F)c(C(=O)N(C2CC2)C2CCC(C)(C)c3ccccc32)c1F` (centres unmarked) [Example 99]: in the series with Sphaerotheca fuliginea, the disease control amounted to 100%. The compound also returned a logP in series [1] (setting [2]) of 4.16.
Consider `CC(c1cccc2c1CCCC2)N(C(=O)c1c(C(F)F)nn(C)c1F)C1CC1` (racemic) [Example 51], for which the disease control with Fusarium nivale was 100%. The compound further yielded a logP in series [1] (setting [2]) of 4.14.
The compound `Cn1nc(C(F)F)c(C(=O)N(Cc2c(C(F)(F)F)ccc(F)c2F)C2CC2)c1F` [Example 68] displayed a disease control in the series with Sphaerotheca fuliginea of 100%. In series [1] (setting [2]), this compound had a logP of 3.31.
For `Cc1ccc(C(F)(F)F)c(CN(C(=O)c2c(C(F)F)nn(C)c2F)C2CC2)c1` [Example 12] the same measures were 100% and 3.78.
As for `Cn1nc(C(F)F)c(C(=O)N(Cc2ccccc2I)C2CC2)c1F` [Example 9], in the series on Fusarium nivale, the disease control was found to be 100%. This compound displayed a logP in series [1] (setting [2]) of 3.37.
Regarding `Cc1cc(C)cc(C(C)N(C(=O)c2c(C(F)F)nn(C)c2F)C2CC2)c1` (racemic) [Example 46], the disease control in the series on Fusarium nivale was 100%. In series [1] (setting [2]), this compound showed a logP of 3.8.
In the same order, the values of `CC(c1cccc2c1CCC(C)(C)C2)N(C(=O)c1c(C(F)F)nn(C)c1F)C1CC1` (racemic) [Example 44] are 100% and 4.89.
Take `Cc1cc(Br)c(CN(C(=O)c2c(C(F)F)nn(C)c2F)C2CC2)cc1Br` [Example 17]: in the series with Fusarium nivale, the disease control came out at 100%. Further, the logP in series [1] (setting [2]) is recorded as 4.19.
